Entries after “also recorded” stand apart in the source; their conditions may differ.
Legend:
CYP17A1 = target: T1, CYP17A1 (Homo sapiens, UniProt P05093); assay: UV-visible spectral ligand binding assay, isolated CYP17A1; conditions: difference spectra
T1 sequence (P05093 with tags, fused parts or gaps): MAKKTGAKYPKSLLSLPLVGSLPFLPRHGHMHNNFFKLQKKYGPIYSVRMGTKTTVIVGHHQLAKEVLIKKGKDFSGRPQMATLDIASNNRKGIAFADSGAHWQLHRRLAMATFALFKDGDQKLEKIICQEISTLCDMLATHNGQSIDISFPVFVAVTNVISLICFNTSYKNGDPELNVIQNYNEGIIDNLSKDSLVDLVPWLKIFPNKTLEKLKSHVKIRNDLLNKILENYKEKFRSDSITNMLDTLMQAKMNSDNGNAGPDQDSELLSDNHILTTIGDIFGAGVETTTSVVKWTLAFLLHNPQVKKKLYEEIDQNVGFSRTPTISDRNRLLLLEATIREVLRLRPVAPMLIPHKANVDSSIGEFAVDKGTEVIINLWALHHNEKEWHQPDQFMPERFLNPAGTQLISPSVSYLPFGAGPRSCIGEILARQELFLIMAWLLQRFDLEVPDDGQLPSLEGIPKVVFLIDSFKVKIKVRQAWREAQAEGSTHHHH

FMND/CYP17A1 = target: T2, FMND/CYP17A1 (Homo sapiens, UniProt P05093+P16435); assay type: binding; conditions: for spectral shift (binding mode): difference spectra, FMND/CYP17A1 fusion, FMN domain oxidized
T2 sequence (P16435+P05093 with tags, fused parts or gaps): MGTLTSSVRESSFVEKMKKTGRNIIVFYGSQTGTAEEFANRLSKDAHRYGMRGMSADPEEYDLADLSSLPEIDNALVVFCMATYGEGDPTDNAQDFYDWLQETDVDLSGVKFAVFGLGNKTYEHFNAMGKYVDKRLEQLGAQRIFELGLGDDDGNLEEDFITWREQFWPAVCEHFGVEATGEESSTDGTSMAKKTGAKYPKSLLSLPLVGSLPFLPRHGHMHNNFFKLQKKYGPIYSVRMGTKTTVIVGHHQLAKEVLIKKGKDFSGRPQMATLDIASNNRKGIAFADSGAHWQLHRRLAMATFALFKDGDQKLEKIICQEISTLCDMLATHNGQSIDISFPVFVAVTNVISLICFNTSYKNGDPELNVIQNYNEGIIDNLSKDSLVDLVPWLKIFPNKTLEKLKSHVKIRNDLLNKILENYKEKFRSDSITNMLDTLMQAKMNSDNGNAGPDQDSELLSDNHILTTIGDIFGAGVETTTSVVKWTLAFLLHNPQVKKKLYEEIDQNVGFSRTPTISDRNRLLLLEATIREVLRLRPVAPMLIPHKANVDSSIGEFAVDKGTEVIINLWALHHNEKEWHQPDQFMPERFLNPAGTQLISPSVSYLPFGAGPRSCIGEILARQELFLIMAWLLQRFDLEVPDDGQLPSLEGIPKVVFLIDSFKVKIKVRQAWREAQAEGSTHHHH

FMND/CYP3A4 [1] = target: T3, FMND/CYP3A4 (Homo sapiens, UniProt P08684); conditions: FMND/CYP3A4 compared with CYP3A4
CYP2A6 = target: T4, CYP2A6 (Homo sapiens, UniProt P11509); assay: UV-visible spectral ligand binding assay, isolated CYP2A6; conditions: difference spectra
T4 sequence (P11509 with tags, fused parts or gaps): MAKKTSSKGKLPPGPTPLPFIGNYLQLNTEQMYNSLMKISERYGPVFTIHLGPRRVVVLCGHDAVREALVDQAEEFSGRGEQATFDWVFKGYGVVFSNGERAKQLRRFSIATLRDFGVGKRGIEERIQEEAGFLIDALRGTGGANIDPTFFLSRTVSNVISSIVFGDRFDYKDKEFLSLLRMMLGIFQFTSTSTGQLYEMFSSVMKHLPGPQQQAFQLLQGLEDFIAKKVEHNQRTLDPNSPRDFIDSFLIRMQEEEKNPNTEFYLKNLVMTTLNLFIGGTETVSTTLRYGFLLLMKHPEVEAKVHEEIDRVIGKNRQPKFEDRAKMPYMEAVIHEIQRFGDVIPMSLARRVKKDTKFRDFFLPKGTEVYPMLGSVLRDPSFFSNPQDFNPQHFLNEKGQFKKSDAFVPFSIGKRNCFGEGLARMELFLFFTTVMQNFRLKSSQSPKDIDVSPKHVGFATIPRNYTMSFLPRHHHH

FMND/CYP2A6 [2] = target: T5, FMND/CYP2A6 (Homo sapiens, UniProt P11509); assay type: binding; conditions: for spectral shift (binding mode): difference spectra, FMND/CYP2A6 fusion, FMN domain oxidized
T5 sequence (P11509 with tags, fused parts or gaps): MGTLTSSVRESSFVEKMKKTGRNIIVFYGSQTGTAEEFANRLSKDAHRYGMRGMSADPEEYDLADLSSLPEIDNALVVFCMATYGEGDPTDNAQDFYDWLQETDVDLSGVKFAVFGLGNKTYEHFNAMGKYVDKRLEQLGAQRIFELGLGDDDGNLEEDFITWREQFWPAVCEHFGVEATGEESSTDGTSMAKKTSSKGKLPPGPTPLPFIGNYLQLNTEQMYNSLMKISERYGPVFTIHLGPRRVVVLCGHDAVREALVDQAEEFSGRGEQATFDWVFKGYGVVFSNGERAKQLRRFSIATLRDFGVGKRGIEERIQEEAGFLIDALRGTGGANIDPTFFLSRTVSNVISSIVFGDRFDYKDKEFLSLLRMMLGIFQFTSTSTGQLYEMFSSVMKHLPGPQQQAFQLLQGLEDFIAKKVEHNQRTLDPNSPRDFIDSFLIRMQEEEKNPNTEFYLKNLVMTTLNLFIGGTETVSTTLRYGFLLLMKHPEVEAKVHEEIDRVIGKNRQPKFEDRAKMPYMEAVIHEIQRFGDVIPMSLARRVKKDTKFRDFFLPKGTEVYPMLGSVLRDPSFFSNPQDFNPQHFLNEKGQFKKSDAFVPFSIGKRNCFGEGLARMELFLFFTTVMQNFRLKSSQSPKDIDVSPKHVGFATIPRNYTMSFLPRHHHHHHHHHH

FMND/CYP2A6 [3] = target: T5, FMND/CYP2A6; assay type: biochemical; conditions: coumarin metabolism to 7-hydroxycoumarin, cumene hydroperoxide, FMND/CYP2A6 vs CYP2A6
FMND/CYP3A4 [4] = target: T3, FMND/CYP3A4; assay type: biochemical; conditions: hydrocortisone metabolism to 6β-hydroxycortisol, cumene hydroperoxide, FMND/CYP3A4 vs CYP3A4
FMND/CYP21A2 = target: T6, FMND/CYP21A2 (Homo sapiens, UniProt P08686+P16435, R103K); assay type: binding; conditions: FMND/CYP21A2 compared with CYP21A2
T6 sequence (P16435+P08686 with tags, fused parts or gaps P08686:R103K): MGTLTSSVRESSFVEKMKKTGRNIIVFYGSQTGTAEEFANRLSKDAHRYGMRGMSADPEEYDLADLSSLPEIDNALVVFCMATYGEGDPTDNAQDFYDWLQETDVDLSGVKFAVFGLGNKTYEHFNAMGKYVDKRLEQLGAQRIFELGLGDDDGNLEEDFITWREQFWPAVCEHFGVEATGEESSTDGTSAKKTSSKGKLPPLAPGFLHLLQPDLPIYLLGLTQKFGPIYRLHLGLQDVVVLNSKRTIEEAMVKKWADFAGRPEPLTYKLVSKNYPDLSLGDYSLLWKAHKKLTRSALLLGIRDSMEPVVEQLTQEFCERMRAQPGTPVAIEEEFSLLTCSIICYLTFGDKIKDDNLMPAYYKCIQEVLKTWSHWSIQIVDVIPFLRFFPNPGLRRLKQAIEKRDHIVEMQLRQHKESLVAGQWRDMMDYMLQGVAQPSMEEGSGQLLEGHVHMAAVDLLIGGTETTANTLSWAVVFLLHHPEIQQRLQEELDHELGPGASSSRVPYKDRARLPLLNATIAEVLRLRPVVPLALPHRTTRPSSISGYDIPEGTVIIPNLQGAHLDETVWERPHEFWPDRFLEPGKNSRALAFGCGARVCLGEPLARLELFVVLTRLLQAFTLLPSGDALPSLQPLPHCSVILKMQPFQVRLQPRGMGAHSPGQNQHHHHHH

FMND/CYP2D6 = assay type: binding, human; conditions: FMND/CYP2D6 compared with CYP2D6
[5] = FMND/CYP17A1 compared with CYP17A1
[6] = FMND/CYP2A6 compared with CYP2A6

CC(=O)[C@@]1(O)CC[C@H]2[C@@H]3CC=C4C[C@@H](O)CC[C@]4(C)[C@H]3CC[C@@]21C [17α-hydroxypregnenolone]
spectral shift (binding mode) (CYP17A1): type I
decrease in Kd by FMN domain fusion (FMND/CYP17A1; [5]): 12%
effect of FMN domain fusion on saturation (ΔAmax), in words (FMND/CYP17A1; [5]): little effect
increase in overall binding efficiency (ΔAmax/Kd) by FMN domain fusion (FMND/CYP17A1; [5]): 16%
spectral shift (binding mode) (FMND/CYP17A1): type I

Clc1ccccc1C(c1ccccc1)(c1ccccc1)n1ccnc1 [clotrimazole]
reduction in the Kd value by FMND fusion (FMND/CYP3A4 [1]): 49%
reduction in total binding / final saturation (ΔAmax) by FMND fusion (FMND/CYP3A4 [1]): 58%

O=c1ccc2ccccc2o1 [coumarin]
spectral shift (binding mode) (CYP2A6): type I
change in total ligand binding by FMN domain fusion, in words (FMND/CYP2A6 [2]; [6]): relatively little change
increase in the Kd value by FMN domain fusion (FMND/CYP2A6 [2]; [6]): more than 2 fold
spectral shift (binding mode) (FMND/CYP2A6 [2]): type I
effect on Km, in words (FMND/CYP2A6 [3]): little effect
effect on catalytic efficiency, in words (FMND/CYP2A6 [3]): decreased

C[C@]12CCC(=O)C=C1CC[C@@H]1[C@@H]2[C@@H](O)C[C@@]2(C)[C@H]1CC[C@]2(O)C(=O)CO [hydrocortisone]
decrease in Km by addition of the FMN domain (FMND/CYP3A4 [4]): ~30%
decrease in kcat by addition of the FMN domain (FMND/CYP3A4 [4]): ~21%
reduction in the Kd value by FMND fusion (FMND/CYP3A4 [1]): 30%
reduction in total binding / final saturation (ΔAmax) by FMND fusion (FMND/CYP3A4 [1]): 33%

CC(=O)N1CCN(c2ccc(OCC3COC(Cn4ccnc4)(c4ccc(Cl)cc4Cl)O3)cc2)CC1 (stereo not shown) [ketoconazole]
effect of FMN domain fusion on saturation (ΔAmax), in words (FMND/CYP17A1; [5]): no significant changes; also recorded: essentially no effect
decrease in total / maximal absorbance change (ΔAmax) by FMN domain fusion (FMND/CYP21A2): ~30%
increase in the dissociation constant by FMN domain fusion (FMND/CYP21A2): 31%

CC[C@@H]1C(=O)OC[C@@H]1Cc1cncn1C [pilocarpine]
increase in affinity by FMN domain fusion (FMND/CYP2D6): 37%
increase in ΔAmax/Kd binding efficiency by FMN domain fusion (FMND/CYP2D6): 32%
reduction in total binding at saturation by FMN domain fusion (FMND/CYP2D6): 17%
spectral shift (binding mode) (CYP2A6): type II
change in the affinity by FMN domain fusion, in words (FMND/CYP2A6 [2]; [6]): no change
decrease in total binding (ΔAmax) by FMN domain fusion (FMND/CYP2A6 [2]; [6]): 30%
spectral shift (binding mode) (FMND/CYP2A6 [2]): type II

CC(=O)[C@H]1CC[C@H]2[C@@H]3CC=C4C[C@@H](O)CC[C@]4(C)[C@H]3CC[C@]12C [pregnenolone]
spectral shift (binding mode) (CYP17A1): type I
effect of FMN domain fusion on binding efficiency, in words (FMND/CYP17A1; [5]): largely unchanged
effect of FMN domain fusion on saturation (ΔAmax), in words (FMND/CYP17A1; [5]): increased
spectral shift (binding mode) (FMND/CYP17A1): type I
